Measurements reported in US12662491B2 (Redona Therapeutics, Inc., priority 2020, dated 2026).

These compounds were tested against T1, Zcchc11 enzyme (Homo sapiens, UniProt Q5TAX3) (assay: TUTase assay (Zcchc11 assay, Lin28a-dependent polyuridylation of pre-let-7)). Conditions: LIN28A 10 nM, Zcchc11 0.2 nM, 5′-fluorescein pre-let-7 miRNA 2 nM, UTP 5 uM, room temperature, 30 minutes pre-incubation; read-out: Potency Lin28a-dep Z11 IC50.
T1 construct: made in house; host or cells: HEK293 cells (Zcchc11); E. coli Rosetta II (LIN28A)
T1 sequence (Q5TAX3 212-1420): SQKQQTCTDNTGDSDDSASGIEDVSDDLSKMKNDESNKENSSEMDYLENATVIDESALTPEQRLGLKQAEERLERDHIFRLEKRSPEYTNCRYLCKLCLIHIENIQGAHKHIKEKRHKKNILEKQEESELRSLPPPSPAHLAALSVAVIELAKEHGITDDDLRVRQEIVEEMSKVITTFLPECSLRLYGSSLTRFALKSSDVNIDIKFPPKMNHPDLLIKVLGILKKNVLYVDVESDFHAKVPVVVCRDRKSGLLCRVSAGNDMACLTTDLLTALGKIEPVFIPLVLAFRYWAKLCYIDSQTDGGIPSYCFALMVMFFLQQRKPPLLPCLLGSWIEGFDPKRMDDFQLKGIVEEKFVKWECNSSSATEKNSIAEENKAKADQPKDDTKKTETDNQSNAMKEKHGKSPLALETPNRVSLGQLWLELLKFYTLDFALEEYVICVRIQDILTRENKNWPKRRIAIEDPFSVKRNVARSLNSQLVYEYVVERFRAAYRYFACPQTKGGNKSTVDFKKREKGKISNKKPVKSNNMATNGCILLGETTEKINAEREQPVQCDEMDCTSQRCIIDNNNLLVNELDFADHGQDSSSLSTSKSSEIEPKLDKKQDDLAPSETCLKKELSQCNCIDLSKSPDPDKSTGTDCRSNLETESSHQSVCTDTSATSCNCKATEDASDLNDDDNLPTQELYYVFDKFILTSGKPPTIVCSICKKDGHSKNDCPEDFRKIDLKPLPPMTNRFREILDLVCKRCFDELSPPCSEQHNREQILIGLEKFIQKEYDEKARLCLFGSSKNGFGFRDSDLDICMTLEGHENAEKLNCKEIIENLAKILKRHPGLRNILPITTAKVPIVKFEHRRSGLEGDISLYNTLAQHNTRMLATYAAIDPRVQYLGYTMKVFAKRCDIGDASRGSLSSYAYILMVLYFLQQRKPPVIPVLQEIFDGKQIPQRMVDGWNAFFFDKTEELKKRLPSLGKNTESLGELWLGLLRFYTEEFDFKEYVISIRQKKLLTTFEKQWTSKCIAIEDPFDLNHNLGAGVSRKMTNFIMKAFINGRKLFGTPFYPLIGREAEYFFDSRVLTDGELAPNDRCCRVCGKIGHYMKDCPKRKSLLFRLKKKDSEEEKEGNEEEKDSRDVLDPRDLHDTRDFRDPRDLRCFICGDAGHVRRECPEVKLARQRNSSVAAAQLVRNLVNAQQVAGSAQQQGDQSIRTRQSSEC
Type: biochemical
Procedure: The purpose of the Zcchc11 assay is to determine compound potency against Zcchc11 enzyme through the measurement of IC50. Compound inhibition is measured as a function of polyuridine tails added to RNA substrates in the presence of active TUTase, UTP, and inhibitor. The Zcchc11 assay was done in a black, non-binding, 384 well plate (Corning #3575). All steps were performed at room temperature. For a typical assay, a 29 ul aliquot of assay buffer (50 mM HEPES pH 7.3, 150 mM KCl, 5 mM MgCl2, 10 mM DTT, 0.01% Triton X-100, 40 U/ml RNAsin (Promega)) containing LIN28A protein (final concentration: 10 nM) is added to each well. Next, 1 ul of compound in 100% DMSO is transferred from a compound dilution plate in which the compound is serially diluted. Next, 10 ul of a 5× mix of Zcchc11 and RNA substrate (5′-fluorescein labeled pre-let-7 miRNA (Dharmacon)) is added (final concentrations: 0.2 nM and 2 nM, respectively). The plate is placed on a plate shaker for 30 seconds to produce mixing, then incubated for 30 minutes. Next, 10 ul of a 5× mix of UTP and the quenching probe (3′-rhodamine labeled A20, polyadenosine nucleotide, (IDT)) is added (final concentrations: 5 uM and 4 nM, respectively). The plate is immediately placed in a Biotek Cytation 5 plate reader, and the time-dependent decrease in fluorescein fluorescence resulting from annealing of the A20 probe to polyuridine tails is recorded, using the kinetics mode of the reader. Reaction rates are obtained using linear fits to the early portion of progress curves. IC50 values are calculated using a four parameter fit with 100% enzyme activity determined from the DMSO control and 0% activity from control samples lacking UTP.
The LIN28A protein was expressed in and purified from E. coli, strain Rosetta II (Novagen). The entire coding sequence of the human, wild-type protein was cloned into expression vector pMAL (NEB), down-stream from a maltose-binding protein tag. The linker sequence contained a TEV protease cleavage site. The protein was purified from bacterial extracts using an MBP-Trap column (GE Healthcare Life Sciences), followed by tag cleavage and removal of the tag by ion-exchange chromatography. When necessary, contaminating bacterial RNA was removed using the procedure describe by Faehnle C R. et al. (2017) Multi-domain utilization by TUT4 and TUT7 in control of let-7 biogenesis. Nat Struct Mol Biol, 24:658-665.
The Zcchc11 protein was expressed in and purified from HEK293 cells. A truncated protein comprising residues 212-1420 of the human sequence was cloned into expression vector pTT5 (Viva Biotech) down-stream from a maltose-binding protein tag. The linker sequence contained a TEV protease cleavage site, and a FLAG tag was added to the carboxyl terminus of the protein. The protein was purified from cell extracts using an MBP-Trap column (GE Healthcare Life Sciences), followed by tag cleavage and further enrichment of the full length construct using anti-FLAG affinity media (Sigma Aldrich).
“+” represents an IC50 value that is greater than 50 μM; “++” represents an IC50 value that is greater than 10 μM and equal to or less than 50 μM; “+++” represents an IC50 value that is greater than 1 μM and equal to or less than 10 μM; and “++++” represents an IC50 value that is equal to or less than 1 μM.

IC50 [µM]	Structure (SMILES)
≤ 1	C[C@H]1CCN(c2cc3c(cc2Cl)c(=O)c(C(=O)O)cn3-c2ccc(N3CC(N(C)C)C3)nc2)[C@H]1COc1ncccc1Cl (racemic) [Example 44, rac-6-chloro-7-((2R,3S)-2-(((3-chloropyridin-2-yl)oxy)methyl)-3-methylpyrrolidin-1-yl)-1-(6-(3-(dimethylamino)azetidin-1-yl)pyridin-3-yl)-4-oxo-1,4-dihydroquinoline-3-carboxylic acid]

Same assay, conditions: Lin28a-dependent Zcchc11 (Z11) TUTase activity; read-out: Potency Lin28a-dep Z11 IC50

IC50 [µM]	Structure (SMILES)
≤ 1	Cn1cc(-n2cc(C(=O)O)c(=O)c3cc(C#N)c(N4CCCC4COc4ncccc4F)cc32)cn1 (racemic) [Compound 245, rac-(R)-6-cyano-7-(2-(((3-fluoropyridin-2-yl)oxy)methyl)pyrrolidin-1-yl)-1-(1-methyl-1H-pyrazol-4-yl)-4-oxo-1,4-dihydro-quinoline-3-carboxylic acid]
≤ 1	O=C(O)c1cn(-c2cnc(OCc3ccccc3)cn2)c2cc(N3CCC[C@@H]3COc3ncccc3Cl)c(Cl)cc2c1=O (racemic) [Compound 263, rac-(R)-1-(5-(benzyloxy)pyrazin-2-yl)-6-chloro-7-(2-(((3-chloropyridin-2-yl)oxy)methyl)pyrrolidin-1-yl)-4-oxo-1,4-dihydro-quinoline-3-carboxylic acid]
≤ 1	CN(C)C1CN(c2ccc(-n3cc(C(=O)O)c(=O)c4cc(Cl)c(N5CCC[C@@H]5COc5nc6c(cc5Cl)ncn6C)cc43)cn2)C1 (racemic) [Compound 274, rac-(R)-6-chloro-7-(2-(((6-chloro-3-methyl-3H-imidazo [4,5-b]pyridin-5-yl)oxy)methyl)pyrrolidin-1-yl)-1-(6-(3-(dimethyl-amino)azetidin-1-yl)pyridin-3-yl)-4-oxo-1,4-dihydro-quinoline-3-carboxylic acid]
≤ 1	Cn1cc(-n2cc(C(=O)O)c(=O)c3cc(F)c(N4CCC[C@@H]4COc4ncccc4F)cc32)cn1 (racemic) [Compound 290, rac-(R)-6-fluoro-7-(2-(((3-fluoropyridin-2-yl)oxy)methyl)pyrrolidin-1-yl)-1-(1-methyl-1H-pyrazol-4-yl)-4-oxo-1,4-dihydro-quinoline-3-carboxylic acid]
≤ 1	CN(C)C1CN(c2ccc(-n3cc(C(=O)O)c(=O)c4cc(Cl)c(N5CC(F)(F)C[C@@H]5COc5ncccc5Cl)cc43)cn2)C1 (racemic) [Compound 305, rac-(R)-6-chloro-7-(2-(((3-chloropyridin-2-yl)oxy)methyl)-4,4-difluoro-pyrrolidin-1-yl)-1-(6-(3-(dimethyl-amino)azetidin-1-yl)pyridin-3-yl)-4-oxo-1,4-dihydro-quinoline-3-carboxylic acid]
≤ 1	NCCOc1cccnc1OC[C@H]1CCCN1c1cc2c(cc1Cl)c(=O)c(C(=O)O)cn2-c1ccc(Br)nc1 (racemic) [Compound 313, rac-(R)-7-(2-(((3-(2-aminoethoxy)pyridin-2-yl)oxy)methyl)pyrrolidin-1-yl)-1-(6-bromopyridin-3-yl)-6-chloro-4-oxo-1,4-dihydro-quinoline-3-carboxylic acid]

More lines, now with the values behind:

Structure (SMILES)	IC50 [µM]
COc1ccc(F)c(OC[C@H]2C[C@H]3C[C@H]3N2c2cc3c(cc2F)c(=O)c(C(=O)O)cn3-c2ccnc(N)c2)n1 (racemic) [Compound 235, Rac-1-(2-aminopyridin-4-yl)-6-fluoro-7-((1R,3R,5R)-3-(((3-fluoro-6-methoxy-pyridin-2-yl)oxy)methyl)-2-azabicyclo [3.1.0]hexan-2-yl)-4-oxo-1,4-dihydro-quinoline-3-carboxylic acid]	≤ 1
COCCN(C)C1CN(c2ccc(-n3cc(C(=O)O)c(=O)c4cc(F)c(N5CC[C@H](C)[C@@H]5COc5ncccc5Cl)cc43)cn2)C1 (racemic) [Compound 262, rac-7-((2R,3S)-2-(((3-chloropyridin-2-yl)oxy)methyl)-3-methyl-pyrrolidin-1-yl)-6-fluoro-1-(6-(3-((2-methoxy-ethyl)(methyl)amino)azetidin-1-yl)pyridin-3-yl)-4-oxo-1,4-dihydro-quinoline-3-carboxylic acid]	≤ 1
CN(C)C1CN(c2ccc(-n3cc(C(=O)O)c(=O)c4cc(Cl)c(N5CC(c6cccnn6)C[C@@H]5COc5ncccc5Cl)cc43)cn2)C1 (mixture of isomers) [Compound 307, rac-6-chloro-7-((2R)-2-(((3-chloropyridin-2-yl)oxy)methyl)-4-(pyridazin-3-yl)pyrrolidin-1-yl)-1-(6-(3-(dimethyl-amino)azetidin-1-yl)pyridin-3-yl)-4-oxo-1,4-dihydro-quinoline-3-carboxylic acid]	≤ 1
O=C(O)c1cn2c3cc(c(F)cc3c1=O)N1CCC[C@@H]1COc1ncccc1OCCOc1ccc-2cc1 (racemic) [Compound 312, rac-(R)-26-fluoro-24-oxo-21,24-dihydro-5,7,10-trioxa-2(1,7)-quinolina-6(2,3)-pyridina-3(1,2)-pyrrolidina-1(1,4)-benzenacyclo-decaphane-23-carboxylic acid formic acid]	> 50
CN(C)C1CN(c2ccc(-n3cc(C(=O)O)c(=O)c4cc(Cl)c(N5CCC[C@@]5(C)COc5ncccc5Cl)cc43)cn2)C1 (racemic) [Compound 314, rac-(R)-6-chloro-7-(2-(((3-chloropyridin-2-yl)oxy)methyl)-2-methyl-pyrrolidin-1-yl)-1-(6-(3-(dimethyl-amino)azetidin-1-yl)pyridin-3-yl)-4-oxo-1,4-dihydro-quinoline-3-carboxylic acid formic acid]	≤ 1
CN(C)C1CN(c2ccc(-n3cc(C(=O)O)c(=O)c4cc(Cl)c(N5CC(c6ccccn6)C[C@@H]5COc5ncccc5Cl)cc43)cn2)C1 (mixture of isomers) [Compound 315, rac-6-chloro-7-((2R)-2-(((3-chloropyridin-2-yl)oxy)methyl)-4-(pyridin-2-yl)pyrrolidin-1-yl)-1-(6-(3-(dimethyl-amino)azetidin-1-yl)pyridin-3-yl)-4-oxo-1,4-dihydro-quinoline-3-carboxylic acid]	≤ 1
